“Also recorded” adds a separate entry of the source.
Columns and labels:
unilateral IRI-AKI = assay: Unilateral IRI-AKI (left renal pedicle clamping 28 min with contralateral nephrectomy) in mice pretreated with PHAD; type: in vivo, mouse (male BALB/c)
Protocol: (§1) A blinded, randomized controlled study in mice, assessed the efficacy of intravenous 3D 6-Acyl phosphorylated hexa-acyl disaccharide (PHAD, a de novo ultrapure synthetic toll-like receptor 4 agonist), to protect against IRI-AKI. Two cohorts of male BALB/c mice received intraperitoneal vehicle or PHAD (10, 20, or 40 μg); or intravenous vehicle or PHAD (2, 20, or 200 μg) at 48 and 24 hours prior to unilateral renal pedicle clamping and simultaneous contralateral nephrectomy (unilateral IRI-AKI). In a separate cohort, mice were treated with vehicle or 200 μg of PHAD followed by bilateral IRI-AKI. Mice were monitored for 3 days after reperfusion and euthanized.
(§2) Kidney function was assessed by blood urea nitrogen (BUN) and serum creatinine measurements. Kidney tubular injury was assessed by semi-quantitative analysis of tubular morphology on PAS-stained kidney sections, and kidney mRNA quantification of injury (N-Gal, Kim-1 and HO-1) and inflammation (IL-6, IL-1b and TNF-α) using qRT-PCR technique. Additional studies were conducted using immunohistochemistry to quantify Kim-1 and F4/80 protein to assess kidney injury and macrophages, respectively. […] Histological injury and N-Gal mRNA were lower, and IL-1b mRNA higher in 200 μg 3D 6-Acyl PHAD treated mice.
(§3) Ischemia Reperfusion Induced Acute Kidney Injury. Male BALB/c mice, 10- to 11-weeks old (22 to 25 g) were purchased from Charles River (Hollister, CA), and were allowed to acclimate for one week prior to studies. IRI-AKI surgery was performed under ketamine/xylazine anesthesia (120 mg/kg [3 mg ketamine], 12 mg/kg [0.3 mg] xylazine) administered in 100 μl sterile saline by intraperitoneal (IP) injection. Mice underwent two types of surgery to induce IRI-AKI. Unilateral IRI-AKI with contralateral nephrectomy (unilateral IRI), and in separate cohorts, bilateral IRI-AKI. For unilateral IRI, the mouse was placed prone on a heat pad set to 37° C., and incisions were made in the muscle and skin to exteriorize the right kidney for nephrectomy. The adrenal gland was displaced from the kidney, and 5-0 silk suture (Ethicon, LA53G) was tied around the renal artery, vein, and ureter with a double surgical knot, before the kidney was removed by cutting distally to the knot. The left kidney was then exteriorized, and fat and connective tissue were dissected from the renal pedicle to expose the renal artery and vein. A vascular clamp (Roboz, cat #RS-5459) was applied to the renal vasculature for 28 minutes. The kidney was tucked back under the skin and the mouse was kept warm on the heat pad during the 28 minutes of ischemia time. For bilateral IRI-AKI, mice underwent bilateral renal artery ischemia for 24 minutes without nephrectomy. Successful ischemia was confirmed by a dark purple appearance of the kidney prior to clamp removal, and successful reperfusion was confirmed by a return to the normal pink color of the kidney within 1-2 min of clamp removal. Upon removing the vascular clamp, the muscle wall was closed with 6-0 absorbable suture (Ethicon, J492G) followed by skin closure with 7 mm wound clips (Roboz, RS-9255, RS-9250). Upon skin closure, mice received 0.5 ml of warm sterile saline subcutaneous (SQ) immediately after surgery, and at 24 hours after surgery. Analgesia was provided with buprenorphine SQ immediately after surgery and every 12 hours for 3 days. Sham operated mice underwent the same surgical approaches (for unilateral IRI-AKI, they underwent right nephrectomy, but the left renal pedicle was not clamped, and for bilateral IRI-AKI, both kidneys were exteriorized but the renal pedicles were not clamped). Blood was collected at baseline (prior to injury), and days 1 and 3 after injury by submandibular vein puncture into a lithium-heparin coated microcuvette tubes, and plasma frozen at −80° C. for blood urea nitrogen (BUN) and creatinine assays. […]

bilateral IRI-AKI = assay: Bilateral IRI-AKI (bilateral renal pedicle clamping 24 min) in mice pretreated with PHAD; type: in vivo, mouse (male BALB/c)
Protocol: as §1, §2, §3

[1] = IV PHAD 2, 20, 200 μg/mouse 48 and 24 h before injury, vs vehicle, post-injury day 1 and 3 (FIG. 1A)
[2] = IV PHAD 200 μg/mouse 48 and 24 h before injury, 24 and 72 hours after bilateral IRI-AKI (FIG. 2A)
[3] = IV PHAD 200 μg/mouse vs vehicle, Day 3 (FIG. 2F)
[4] = IV PHAD 200 μg/mouse vs vehicle, Day 3 (FIG. 3)

SMILES: CCCCCCCCCCCCCC(=O)OC(CCCCCCCCCCC)CC(=O)NC1C(O)OC(COC2OC(CO)C(OP(=O)(O)O)C(OC(=O)CC(CCCCCCCCCCC)OC(=O)CCCCCCCCCCCCC)C2NC(=O)CC(CCCCCCCCCCC)OC(=O)CCCCCCCCCCCCC)C(O)C1O.N (stereo not shown) [PHAD, monophosphoryl hexa-acyl Lipid A, 3-Deacyl 6-acyl phosphorylated hexa-acyl disaccharide]
- Histological injury (unilateral IRI-AKI; 200 μg (Example 1)): lower
- IL-1b mRNA (unilateral IRI-AKI; 200 μg (Example 1)): higher
- renal Kim-1 mRNA expression (qRT-PCR) (unilateral IRI-AKI; 200 μg PHAD, Day 3 (FIG. 1E)): no reduction
- renal N-Gal mRNA expression (qRT-PCR) (unilateral IRI-AKI; 200 μg PHAD, Day 3 (FIG. 1E)): reduction in expression
- renal N-Gal mRNA expression (qRT-PCR) (unilateral IRI-AKI; 200 μg PHAD, Day 3 (FIG. 1E), listed as 3D 6-Acyl PHAD): lower
- survival compared with the vehicle control group (unilateral IRI-AKI; 2 and 20 μg pretreatment dose (FIG. 1D)): more mice survived
- BUN levels (unilateral IRI-AKI; [1]): reduced elevations
- creatinine levels (unilateral IRI-AKI; [1]): reduced elevations
- renal IL-1β mRNA (qRT-PCR) (unilateral IRI-AKI; IV PHAD 2, 20, 200 μg/mouse vs vehicle control (FIG. 1E)): dose-dependent increase
- 3-day survival (unilateral IRI-AKI; IV PHAD 2, 20, 200 μg/mouse vs vehicle, log-rank test (FIG. 1D)): no significant improvement in survival
- tubular injury in the cortex and OSOM (PAS-stained sections) (unilateral IRI-AKI; IV PHAD, increasing doses, Day 3 after injury (FIGS. 1B, 1C)): reduced tubular injury
- renal function (unilateral IRI-AKI; pretreatment with PHAD at 48 and 24 h before unilateral IRI-AKI (Example 1)): dose-dependent preservation of renal function
- BUN levels (bilateral IRI-AKI; [2]): reduced
- creatinine levels (bilateral IRI-AKI; [2]): reduced
- 3-day survival (bilateral IRI-AKI; IV PHAD 200 μg/mouse vs vehicle (FIG. 6)): no difference in survival
- renal IL-1β mRNA (qRT-PCR) (bilateral IRI-AKI; [3]): increased
- renal IL-6 mRNA (qRT-PCR) (bilateral IRI-AKI; [3]): no differences
- renal Kim-1 mRNA (qRT-PCR) (bilateral IRI-AKI; [3]): no differences
- renal N-Gal mRNA (qRT-PCR) (bilateral IRI-AKI; [3]): lower levels
- renal Tnf-α mRNA (qRT-PCR) (bilateral IRI-AKI; [3]): no differences
- F4/80 staining for renal macrophages (bilateral IRI-AKI; [4]): no difference in F4/80 staining
- area of cells expressing Kim-1 protein (immunostaining), outer medulla (bilateral IRI-AKI; [4]): significant reduction; also recorded: significantly reduced
- renal expression of Ho-1 mRNA (qRT-PCR) (bilateral IRI-AKI; IV PHAD 200 μg/mouse vs vehicle, Day 3 (FIG. 4A)): reduced
- renal Irf-1 mRNA (qRT-PCR) (bilateral IRI-AKI; IV PHAD 200 μg/mouse vs vehicle, Day 3 (FIG. 4B)): no differences in expression
- renal Ccl-2 mRNA (qRT-PCR) (bilateral IRI-AKI; IV PHAD 200 μg/mouse vs vehicle, Day 3 (FIG. 4C)): no differences in expression
- renal Ccl-3 mRNA (qRT-PCR) (bilateral IRI-AKI; IV PHAD 200 μg/mouse vs vehicle, Day 3 (FIG. 4D)): no differences in expression
- tubular injury (PAS-stained sections, outer stripe of outer medulla) (bilateral IRI-AKI; IV PHAD 200 μg/mouse, Day 3 (FIGS. 2B, 2D)): reduced tubular injury
- apoptosis (TUNEL, outer stripe of outer medulla) (bilateral IRI-AKI; IV PHAD 200 μg/mouse, Day 3 (FIGS. 2C, 2E)): reduced apoptosis

— patent publication US20260240885A1, “PHOSPHORYLATED HEXAACYL DISACCHARIDES FOR TREATING OR PREVENTING ACUTE KIDNEY INJURY” (VANDERBILT UNIVERSITY, priority 2022, published 2026)
